From patent US6107284A, “Water-soluble derivatives of epipodophyllotoxin, process for their preparation, their use as medicinal products and their intended use in anti-cancer treatments” (Pierre Fabre Medicament, priority 1994, dated 2000)
Where a name gives a salt, the structure may show the parent alone. Read-outs that look alike come from different tables or passages of the source.

Key:
[1] = Measurement of the water-solubility of the salts; type: physicochemical; conditions: read-out: % solubility (weight/volume) expressed in g per 100 ml of water
Source text: The amorphous or crystalline salts are obtained by simple freeze-drying. [drawing 4] Measurement of the Water-Solubility
The solubility in water of the salts of the phosphate or carboxylate derivatives by addition of physiologically acceptable organic amines such as, for example, N-methylglucamine, triethanolamine or lysine, or the salts with inorganic cations such as sodium, obtained in lyophilized form or by extemporaneous addition of a base to the free acid compound, gave the following results by way of example.

topoisomerase II = topoisomerase II (Cricetulus griseus, UniProt P41515); experiment: Test of inhibition of the activity of topoisomerase II; type: biochemical; conditions: for IC50: in vitro, read-out: Test of inhibition of the activity of topoisomerase II (ED50 M)
Source text: Measurement of the inhibition of the activity of topoisomerase II is made according to the procedure described in the literature: "Nuclear topoisomerase II levels correlate with the sensitivity of mammalian cells to intercalating Agents and Epipodophyllotoxins", I. D. Hickson et al., J. Biol. Chem. (1988), 263, 17724.

[2] = background, known drugs; cited from earlier work

topoisomerase II, sequence (P41515 whole entry): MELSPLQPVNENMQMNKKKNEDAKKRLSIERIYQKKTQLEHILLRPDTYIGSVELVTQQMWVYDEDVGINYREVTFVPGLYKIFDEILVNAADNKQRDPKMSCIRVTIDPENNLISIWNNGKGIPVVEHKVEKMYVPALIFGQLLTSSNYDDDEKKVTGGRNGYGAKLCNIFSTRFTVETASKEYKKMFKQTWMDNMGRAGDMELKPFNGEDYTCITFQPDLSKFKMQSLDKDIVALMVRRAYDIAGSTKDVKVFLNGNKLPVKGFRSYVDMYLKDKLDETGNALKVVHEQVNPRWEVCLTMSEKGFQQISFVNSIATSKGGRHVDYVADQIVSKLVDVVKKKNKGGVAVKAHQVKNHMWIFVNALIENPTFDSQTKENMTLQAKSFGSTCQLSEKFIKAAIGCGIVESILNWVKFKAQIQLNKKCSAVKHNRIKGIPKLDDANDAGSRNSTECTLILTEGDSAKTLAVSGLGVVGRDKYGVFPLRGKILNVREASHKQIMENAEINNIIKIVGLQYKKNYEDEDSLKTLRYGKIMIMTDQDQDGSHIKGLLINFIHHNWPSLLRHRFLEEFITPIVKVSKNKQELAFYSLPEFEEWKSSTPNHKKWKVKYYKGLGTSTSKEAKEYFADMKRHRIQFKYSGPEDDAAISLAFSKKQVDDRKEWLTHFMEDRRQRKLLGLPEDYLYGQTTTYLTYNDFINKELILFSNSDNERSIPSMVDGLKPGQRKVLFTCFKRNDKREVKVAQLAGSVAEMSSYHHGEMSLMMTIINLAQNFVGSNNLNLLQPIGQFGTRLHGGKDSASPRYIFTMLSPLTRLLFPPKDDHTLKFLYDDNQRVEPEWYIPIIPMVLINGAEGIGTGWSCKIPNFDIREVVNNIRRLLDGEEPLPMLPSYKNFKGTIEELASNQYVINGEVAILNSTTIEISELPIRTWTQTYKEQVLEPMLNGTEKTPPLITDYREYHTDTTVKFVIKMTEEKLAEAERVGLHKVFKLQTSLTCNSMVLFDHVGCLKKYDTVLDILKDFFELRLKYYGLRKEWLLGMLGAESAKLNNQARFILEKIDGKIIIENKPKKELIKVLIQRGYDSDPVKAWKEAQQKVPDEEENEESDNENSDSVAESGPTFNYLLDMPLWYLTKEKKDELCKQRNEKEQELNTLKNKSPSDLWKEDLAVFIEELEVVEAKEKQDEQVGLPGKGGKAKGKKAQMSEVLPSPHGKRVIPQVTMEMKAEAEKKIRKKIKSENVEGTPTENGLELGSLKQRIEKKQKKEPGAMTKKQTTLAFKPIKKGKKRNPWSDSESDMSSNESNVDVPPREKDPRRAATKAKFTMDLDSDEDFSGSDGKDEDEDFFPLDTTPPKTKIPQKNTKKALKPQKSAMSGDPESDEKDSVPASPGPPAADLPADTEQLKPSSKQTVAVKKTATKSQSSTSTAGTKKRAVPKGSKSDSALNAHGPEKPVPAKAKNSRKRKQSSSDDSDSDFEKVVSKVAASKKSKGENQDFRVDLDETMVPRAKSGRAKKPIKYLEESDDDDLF

Compound	solubility ([1]; N-methylglucamine salt)	IC50 (topoisomerase II)	other results
COc1cc([C@@H]2c3cc4c(cc3[C@@H](O[C@@H]3O[C@@H]5CO[C@@H](C)O[C@H]5[C@H](OC(=O)COc5ccc(F)cc5)[C@H]3OC(=O)COc3ccc(F)cc3)[C@H]3COC(=O)[C@H]23)OCO4)cc(OC)c1OP(=O)(O)O [Example 4, 4'-demethyl-4-O-(2,3-bis(4-fluorophenoxyacetyl)-4,6-ethylidene-β-D-glucosyl)epipodophyllotoxin-4'-deoxy-4'-phosphate bis(N-methylglucamine) Salt]	100 mg/mL	1.8 µM	–
COc1cc([C@@H]2c3cc4c(cc3[C@@H](O[C@@H]3O[C@@H]5CO[C@@H](C)O[C@H]5[C@H](OC(=O)COc5ccc(OC(F)(F)F)cc5)[C@H]3OC(=O)COc3ccc(OC(F)(F)F)cc3)[C@H]3COC(=O)[C@H]23)OCO4)cc(OC)c1OP(=O)(O)O [Example 3, 4'-demethyl-4-O-(2,3-bis-(4-trifluoromethoxyphenoxyacetyl)-4,6-ethylidene-β-D-gluocosyl)epipodophyllotoxin-4'-deoxy-4'-phosphate, bis(N-methylglucamine) Salt]	50 mg/mL	0.32 µM	–
COc1cc([C@@H]2c3cc4c(cc3[C@@H](O[C@@H]3O[C@@H]5CO[C@@H](C)O[C@H]5[C@H](O)[C@H]3O)[C@H]3COC(=O)[C@H]23)OCO4)cc(OC)c1OP(=O)(O)O [Etopofos, reference compound]	–	> 100 µM	in vitro activity compared with etoposide (in words) (topoisomerase II; relative to etoposide): loss of in vitro activity
COc1cc([C@@H]2c3cc4c(cc3[C@@H](O[C@@H]3O[C@@H]5CO[C@@H](C)O[C@H]5[C@H](O)[C@H]3O)[C@H]3COC(=O)[C@H]23)OCO4)cc(OC)c1O [Etoposide, reference compound]	–	56 µM	water-solubility (in words) [2]: lack of water-solubility
COc1cc([C@@H]2c3cc4c(cc3[C@@H](O[C@@H]3O[C@@H]5CO[C@@H](C)O[C@H]5[C@H](OC(=O)COc5ccc(O)cc5)[C@H]3OC(=O)COc3ccc(O)cc3)[C@H]3COC(=O)[C@H]23)OCO4)cc(OC)c1OC(=O)N(CC(=O)O)CC(=O)O [Example 11, 4'-(dicarboxymethylaminocarbonyl)-4'-demethyl-4-O-(2,3-bis(p-hydroxyphenoxyacetyl)-4,6-ethylidene-β-D-glucosyl)epipodophyllotoxin]	100 mg/mL	5.6 µM	–
COc1cc([C@@H]2c3cc4c(cc3[C@@H](O[C@@H]3O[C@@H]5CO[C@@H](C)O[C@H]5[C@H](OC(=O)CS(=O)(=O)c5ccccc5)[C@H]3OC(=O)CS(=O)(=O)c3ccccc3)[C@H]3COC(=O)[C@H]23)OCO4)cc(OC)c1OP(=O)(O)O [Example 21, 4'-demethyl-4'-deoxy-4'-phosphate-4-O-(2,3-bis(phenylsulfonylacetyl)-4,6-ethylidene-β-D-glucosyl)epipodophyllotoxin]	100 mg/mL	5.6 µM	–
COc1cc([C@@H]2c3cc4c(cc3[C@@H](O[C@@H]3O[C@@H]5CO[C@@H](C)O[C@H]5[C@H](OC(=O)COc5ccc(OP(=O)(O)O)cc5)[C@H]3OC(=O)COc3ccc(OP(=O)(O)O)cc3)[C@H]3COC(=O)[C@H]23)OCO4)cc(OC)c1OP(=O)(O)O [Example 7, 4'-demethyl-4-O-(2,3-bis(4-phosphonooxyphenoxyacetyl)-4,6-ethylidene-β-D-glucosyl)epipodophyllotoxin-4'-deoxy-4'-phosphate]	100 mg/mL	56 µM	–
COc1cc([C@@H]2c3cc4c(cc3[C@@H](O[C@@H]3O[C@@H]5CO[C@@H](C)O[C@H]5[C@H](OC(=O)COc5ccc(OP(=O)(O)O)cc5)[C@H]3OC(=O)COc3ccc(OP(=O)(O)O)cc3)[C@H]3COC(=O)[C@H]23)OCO4)cc(OC)c1OC(=O)COc1ccc(OP(=O)(O)O)cc1 [Example 6, 4'-(4-phosphonooxyphenoxyacetyl)-4'-demethyl-4-O-(2,3-bis(4-phosphonooxyphenoxyacetyl)-4,6-ethylidene-β-D-glucosyl)epipodophyllotoxin]	100 mg/mL	0.32 µM	solubility ([1]; Sodium salt): 10 mg/mL; solubility ([1]; lysine salt): 200 mg/mL; solubility ([1]; triethanolamine salt): 200 mg/mL
COc1cc([C@@H]2c3cc4c(cc3[C@@H](O[C@@H]3O[C@@H]5CO[C@@H](c6cccs6)O[C@H]5[C@H](O)[C@H]3O)[C@H]3COC(=O)[C@H]23)OCO4)cc(OC)c1O [teniposide]	–	–	water-solubility (in words) [2]: lack of water-solubility
COc1cc([C@@H]2c3cc4c(cc3[C@@H](O[C@@H]3O[C@@H]5CO[C@@H](C)O[C@H]5[C@H](OC(=O)COc5ccccc5)[C@H]3OC(=O)COc3ccccc3)[C@H]3COC(=O)[C@H]23)OCO4)cc(OC)c1OP(=O)(O)O [Example 1, 4'-demethyl-4-O-(2,3-bisphenoxyacetyl-4,6-ethylidene-β-D-glucosyl)epipodophyllotoxin-4'-deoxy-4'-phosphate]	5 mg/mL	5.6 µM	–
COc1cc([C@@H]2c3cc4c(cc3[C@@H](O[C@@H]3O[C@@H]5CO[C@@H](C)O[C@H]5[C@H](OC(=O)COc5ccc(OCC(=O)O)cc5)[C@H]3OC(=O)COc3ccc(OCC(=O)O)cc3)[C@H]3COC(=O)[C@H]23)OCO4)cc(OC)c1OC(=O)COc1ccc(OCC(=O)O)cc1 [Example 26, 4'-demethyl-4'-carboxymethoxyphenoxyacetyl-4-O-(2,3-bis(4-carboxymethoxyphenoxyacetyl)-4,6-ethylidene-β-D-glucosyl)epipodophyllotoxin]	100 mg/mL	5.6 µM	–
COc1cc([C@@H]2c3cc4c(cc3[C@@H](O[C@@H]3O[C@@H]5CO[C@@H](C)O[C@H]5[C@H](OC(=O)COc5ccc(Cl)cc5)[C@H]3OC(=O)COc3ccc(Cl)cc3)[C@H]3COC(=O)[C@H]23)OCO4)cc(OC)c1OP(=O)(O)O [Example 27, 4'-demethyl-4'-deoxy-4'-phosphate-4-O-(2,3-bis(4-chlorophenoxyacetyl)-4,6-ethylidene-β-D-glucosyl)epipodophyllotoxin]	5 mg/mL	0.76 µM	–
